{"source": "patent US11980633B2", "about": "“Method for treating cancer using a combination of DNA-damaging agents and DNA-PK inhibitors” (Vertex Pharmaceuticals Incorporated, priority 2016, dated 2024)", "system": "pKAP1 and pH2AX levels in MDA-MB-436 and MDA-MB-468 breast cancer cells", "test": "pKAP1 and pH2AX immunoblot, Compound B-2 and doxorubicin in MDA-MB-436 and MDA-MB-468 cells", "assay_type": "cell-based, human", "conditions": "1 μM Compound B-2 + 500 nM doxorubicin; at 8 h", "procedure": "Materials and Methods. The human cancer cell lines A549 (CCL-185), DU4475 (HTB-123), MDA-MB-436 (HTB-130), and MDA-MB-468 (HTB-132) were obtained from American Type Culture Collection (ATCC; Manassas, VA). A 10 mM stock solution of Compound B-1 or Compound B-2 was prepared in DMSO and stored at −20° C. Etoposide and doxorubicin were purchased from Sigma-Aldrich (St. Louis, MO).\nThe A549 human lung cancer cell line was purchased from ATCC and was cultured in DMEM supplemented with 10% fetal bovine serum, 1× non-essential amino acids and 1× Penicillin/Streptomycin (complete medium). Cells were maintained at a subconfluent state by passaging every 2-3 days. Human breast cancer cells lines DU4475, MDA-MB-436, and MDA-MB-468 were purchased from ATCC and cultured in DMEM supplemented with 10% fetal bovine serum, 1× Glutamax and Penicillin/Streptomycin. Cells were maintained at a subconfluent state by passaging every 2-3 days.\nCompound B-1 and Compound B-2 used in these experiments were not prepared as a co-crystals.\nBreast cancer cell lines grown in 24-well (Costar, catalog #3526) or 6-well (Costar, catalog #3516) tissue culture plates to 70-80% confluence were pre-incubated with 1 μM Compound B-2 or DMSO for 15 min. Doxorubicin was added to a final concentration of either 100 nM or 500 nM from a 1000× stock prepared in DMSO. Cells were then incubated for the indicated amount of time and harvested for analysis.\nCell Lysis and Western Blot Analysis. […]\nTo determine that enhancement of DNA damage by concurrent treatment of cells with Compound B-2 and doxorubicin was not specific to DU4475 cells, two additional breast cancer cell lines, MDA-MB-436 and MDA-MB-468, were also pre-incubated with 1 μM Compound B-2 for 15 min, followed by addition of 500 nM doxorubicin. Cells were harvested at various time points following doxorubicin addition and analyzed for levels of pKAP1 and pH2AX by immunoblotting.", "data": [{"smiles": "[2H]c1nc(C)nc([2H])c1-c1cc(NC[C@@H](C)c2cccc3c(C(=O)NC)ccnc23)ncn1", "note": "[Compound B-2]", "values": [{"measurement": "pH2AX level, max enhancement vs doxorubicin alone", "value": 1.5, "unit": "fold"}, {"measurement": "pKAP1 level, max enhancement vs doxorubicin alone", "value": "3.5-4 fold"}]}]}
